Drawing on PubChem BioAssay (NCI), this text covers GI50 and TGI for 15 molecules.

Some test systems named below: U251 CNS; TK-10 renal; CAKI-1 renal; MCF7 breast; OVCAR-3 ovarian; SR leukemia; ACHN renal; UACC-62 melanoma.
Common to all, as to test: NCI anticancer screen, dose series, 48 h

SMILES strings stand for the structures.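 Where inhibition never reached the appropriate level, the endpoint shown equals the highest concentration tested. Otherwise, values were interpolated linearly from a five-concentration, 48-hour dose response in 96-well plates. At the GI50, growth is halved. TGI marks complete inhibition of growth.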

`Cc1cc(NCc2cc(Nc3ccnc4cc(Cl)ccc34)ccc2F)nc(N2CCOCC2)n1`: the GI50 is 1.95 µM in the assay with U251 CNS; 1.96 µM in the assay with TK-10 renal; 1.52 µM in the assay on CAKI-1 renal; 2.12 µM with MCF7 breast; 1.53 µM with OVCAR-3 ovarian. The TGI was 4.05 µM in the assay with U251 CNS; 3.92 µM in the assay with TK-10 renal; 3.21 µM with CAKI-1 renal; 6.15 µM in the assay with MCF7 breast; 2.95 µM in the assay with OVCAR-3 ovarian.

Consider `O=C1c2cccnc2-c2nc(-c3cccnc3)cc3c2c1nc1ccccc13`, for which the TGI in the assay on SR leukemia was greater than 100 µM; in the assay on U251 CNS it was greater than 100 µM; in the assay on CAKI-1 renal it was 22.8 µM; with ACHN renal it was 2.88 µM; in the assay with MCF7 breast, 3.32 µM; in the assay with UACC-62 melanoma, 28.3 µM. Besides, the GI50 was 3.61 µM in the assay with U251 CNS; 6.96 µM in the assay on CAKI-1 renal; 1.55 µM with ACHN renal; 1.64 µM in the assay with MCF7 breast; 13.3 µM with UACC-62 melanoma.

`O=C(NN1C(=O)CSC1c1cccc(Cl)c1)C(O)c1ccccc1` (centres undefined): the GI50 was 59.2 µM in the assay on U251 CNS; greater than 100 µM with TK-10 renal; 90.3 µM in the assay on CAKI-1 renal; 67.4 µM in the assay on ACHN renal; greater than 100 µM in the assay with MCF7 breast; 33.8 µM in the assay with OVCAR-3 ovarian. In addition, the GI50 in the assay on UACC-62 melanoma is 23.1 µM. Also, the TGI with U251 CNS, in the assay with TK-10 renal, in the assay on CAKI-1 renal, with ACHN renal, with MCF7 breast and in the assay with OVCAR-3 ovarian was greater than 100 µM in each case. This molecule also had a TGI in the assay on UACC-62 melanoma greater than 100 µM.

With `CC(C)(C)[Si](C)(C)OC1[C@@H](CNC(N)=O)O[C@@H](n2cnc3c(NC(=O)Nc4ccccc4)ncnc32)[C@H]1O[Si](C)(C)C(C)(C)C` (some centres undefined), the GI50 in the assay with SR leukemia is 0.977 µM; with U251 CNS it was 1.89 µM; in the assay on CAKI-1 renal, 1.76 µM; in the assay on ACHN renal, 2.42 µM; with MCF7 breast, 1.83 µM; in the assay with OVCAR-3 ovarian, 1.12 µM. Moreover, in the assay with UACC-62 melanoma, the GI50 is 6.19 µM. The TGI in the assay on SR leukemia worked out at 1.99 µM; with U251 CNS, 7.93 µM; in the assay on CAKI-1 renal, 7.12 µM; in the assay on ACHN renal, 8.62 µM; in the assay with MCF7 breast, 8.51 µM; with OVCAR-3 ovarian, 2.31 µM. This molecule also yielded a TGI in the assay on UACC-62 melanoma of 12.6 µM.

Consider `CO[C@H]1/C=C/O[C@@]2(C)Oc3c(C)c(O)c4c(O)c(c(/C=N/N5CCN(C)CC5)c(O)c4c3C2=O)NC(=O)/C(C)=C\C=C\[C@H](C)[C@H](O)[C@@H](C)[C@@H](O)[C@@H](C)[C@H](OC(C)=O)[C@@H]1C`, for which the TGI in the assay with SR leukemia is 52.6 µM; in the assay on TK-10 renal it was greater than 100 µM; in the assay with CAKI-1 renal it was greater than 100 µM; in the assay with ACHN renal it was greater than 100 µM; in the assay on MCF7 breast, greater than 100 µM; with OVCAR-3 ovarian, greater than 100 µM. Further, the TGI with UACC-62 melanoma is greater than 100 µM.

Turning to `Cc1ccc(S(=O)(=O)c2nc(-c3ccccc3)oc2S(C)(=O)=O)cc1`, the GI50 is 2 µM in the assay with SR leukemia; 5.88 µM in the assay with U251 CNS; 1.7 µM in the assay with TK-10 renal; 1.8 µM in the assay with CAKI-1 renal; 1.76 µM in the assay with ACHN renal; 1.86 µM in the assay with OVCAR-3 ovarian. Further, the GI50 in the assay with UACC-62 melanoma was 1.89 µM. The TGI is 7.69 µM with SR leukemia; 18.3 µM in the assay with U251 CNS; 3.1 µM in the assay with TK-10 renal; 3.21 µM in the assay with CAKI-1 renal; 3.13 µM in the assay with ACHN renal; 3.35 µM in the assay with OVCAR-3 ovarian. This molecule showed a TGI in the assay with UACC-62 melanoma of 3.98 µM.

As to `CC(/C=C/C(O)=C1/C(=O)CNC1=O)=C\[C@@H](C)[C@H]1O[C@@]2(C)O[C@H](C(=O)[C@@H]3O[C@@]32C)[C@@H]1C`, the TGI with U251 CNS came to 54.9 µM; with TK-10 renal, 44.2 µM; in the assay with CAKI-1 renal, 57 µM; in the assay with ACHN renal, 41.9 µM; with MCF7 breast, 39.8 µM; in the assay with OVCAR-3 ovarian, 44.6 µM. The TGI with UACC-62 melanoma was 33.3 µM.

As for `CCSc1ccc([C@@H]2[C@@H](O)C(=O)N2c2cc(OC)c(OC)c(OC)c2)cc1`, the GI50 in the assay on SR leukemia is less than 0.01 µM; in the assay with U251 CNS, less than 0.0144 µM; with TK-10 renal it was 17.7 µM; with ACHN renal it was 0.0141 µM; with MCF7 breast it was less than 0.01 µM; in the assay with OVCAR-3 ovarian it was less than 0.01 µM. The GI50 in the assay with UACC-62 melanoma is less than 0.01 µM. Also, the TGI in the assay on SR leukemia came out at 17.4 µM; with U251 CNS it was 16 µM; in the assay with TK-10 renal it was 84.1 µM; with ACHN renal, 43.7 µM; with MCF7 breast, 15.7 µM; with OVCAR-3 ovarian, 0.548 µM. The same molecule yielded a TGI in the assay on UACC-62 melanoma of 20.1 µM.

For `CCCN(CCC)c1ccc(C=O)c(Cl)c1`, the GI50 with U251 CNS was 6.6 µM; in the assay on TK-10 renal, 0.262 µM; in the assay with CAKI-1 renal it was 15.1 µM; with ACHN renal, 31.7 µM; with MCF7 breast, 1.8 µM; with OVCAR-3 ovarian it was 1.67 µM. Also, in the assay with UACC-62 melanoma, the GI50 was 0.317 µM. Moreover, the TGI was 29.9 µM in the assay on U251 CNS; 1.17 µM in the assay with TK-10 renal; greater than 66.9 µM in the assay on CAKI-1 renal; greater than 100 µM in the assay on ACHN renal; 29.4 µM in the assay with MCF7 breast; 6.7 µM in the assay on OVCAR-3 ovarian. In addition, the TGI in the assay with UACC-62 melanoma turned out to be 1.81 µM.

Take `COc1ccc(-c2c(C#N)c(N)nc(N3CCOCC3)c2C#N)cc1`: the GI50 is 27.4 µM in the assay with U251 CNS; 19.6 µM in the assay with TK-10 renal; 13 µM with CAKI-1 renal; 20.2 µM in the assay with ACHN renal; 21.6 µM with MCF7 breast; 12.9 µM in the assay with OVCAR-3 ovarian. The GI50 in the assay with UACC-62 melanoma was 14.6 µM. Moreover, the TGI with U251 CNS was greater than 100 µM; in the assay with TK-10 renal, 86.1 µM; with CAKI-1 renal it was 31.8 µM; in the assay with ACHN renal, greater than 100 µM; in the assay on MCF7 breast it was 98.9 µM; in the assay on OVCAR-3 ovarian, 45.4 µM. The TGI with UACC-62 melanoma is 74.7 µM.

For the molecule `O=C(c1ccc2ccccc2c1)c1nc2cc(F)ccc2[n+]([O-])c1C(F)(F)F`, the GI50 is 18.1 µM with U251 CNS; 28.5 µM with TK-10 renal; 4.29 µM in the assay with CAKI-1 renal; 22.5 µM in the assay with ACHN renal; 35.6 µM in the assay with MCF7 breast; 16.3 µM with OVCAR-3 ovarian. In addition, the GI50 in the assay on UACC-62 melanoma is 17 µM. Also, the TGI is 33.9 µM with U251 CNS; 92.2 µM in the assay with TK-10 renal; 17.6 µM in the assay on CAKI-1 renal; 60 µM in the assay with ACHN renal; greater than 100 µM with MCF7 breast; 29.9 µM in the assay on OVCAR-3 ovarian. This molecule also showed a TGI in the assay on UACC-62 melanoma of 32.6 µM.

As for `COc1ccc2c(c1)C(=O)/C(=C/c1cccc(OCC(=O)Nc3nc(C)c(C)s3)c1)O2`, the GI50 in the assay on SR leukemia was 0.0184 µM; in the assay on TK-10 renal, 1.03 µM; with CAKI-1 renal it was 0.271 µM; in the assay on ACHN renal, 0.139 µM; in the assay on MCF7 breast it was 1.63 µM; in the assay with OVCAR-3 ovarian it was 0.0179 µM. Further, the GI50 with UACC-62 melanoma is 1.97 µM. Also, the TGI came to 0.0364 µM in the assay on SR leukemia; 2.8 µM in the assay on TK-10 renal; 1.16 µM in the assay with CAKI-1 renal; 0.779 µM in the assay on ACHN renal; 3.48 µM in the assay on MCF7 breast; 0.0366 µM in the assay on OVCAR-3 ovarian. The molecule further displayed a TGI in the assay on UACC-62 melanoma of 7.98 µM.

For `COc1ccc(-c2cnnn2-c2nonc2-n2cccc2)cc1OC`, the GI50 with SR leukemia was 1.9 µM; in the assay with TK-10 renal, 22.6 µM; in the assay with CAKI-1 renal it was 3.39 µM; in the assay with ACHN renal it was 7.8 µM; with MCF7 breast, 3.17 µM; with OVCAR-3 ovarian it was 3.97 µM. In the assay with UACC-62 melanoma, the GI50 is 5.42 µM. Further, the TGI with SR leukemia, in the assay with TK-10 renal, with CAKI-1 renal, with ACHN renal, in the assay with MCF7 breast and in the assay with OVCAR-3 ovarian was greater than 100 µM each time. The molecule also yielded a TGI in the assay with UACC-62 melanoma greater than 100 µM.

On to `O=C(CC1(O)C(=O)Nc2ccc(F)cc21)c1ccc(C(=O)NCC2CCC3(CC2)OOC2(CCCCC2)OO3)cc1` (centres undefined), for which the GI50 was 3.18 µM in the assay on U251 CNS; 2.03 µM in the assay with TK-10 renal; 14 µM in the assay with CAKI-1 renal; 2.89 µM in the assay on ACHN renal; 8.23 µM in the assay with MCF7 breast; 1.85 µM with OVCAR-3 ovarian. For the same molecule, the GI50 in the assay on UACC-62 melanoma is 12.2 µM. In addition, the TGI with U251 CNS worked out at 11.3 µM; in the assay on TK-10 renal, 4.36 µM; with CAKI-1 renal it was 27.7 µM; in the assay with ACHN renal it was 10.7 µM; with MCF7 breast, 29 µM; in the assay on OVCAR-3 ovarian, 4.18 µM. Further, the TGI in the assay on UACC-62 melanoma was 29 µM.

For the molecule `C=C1C(=O)O[C@H]2[C@H]1CC/C(Cn1cc(-c3ccc(N)cc3)nn1)=C\CC[C@@]1(C)O[C@@H]21`, the GI50 in the assay on SR leukemia was 0.702 µM; in the assay with U251 CNS it was 4.16 µM; in the assay with TK-10 renal, 2.25 µM; in the assay on CAKI-1 renal, 1.77 µM; with ACHN renal, 2.65 µM; with MCF7 breast, 2.41 µM. In the assay with OVCAR-3 ovarian, the GI50 is 1.62 µM. The TGI in the assay with SR leukemia is greater than 100 µM; in the assay on U251 CNS, 16.5 µM; in the assay with TK-10 renal, 5.43 µM; in the assay with CAKI-1 renal it was 7.03 µM; with ACHN renal it was 12 µM; in the assay on MCF7 breast it was 9.13 µM. Further, in the assay with OVCAR-3 ovarian, the TGI turned out to be 3.99 µM.
